Assay results: US11518785B2, “Peptide showing melanogenesis promoting activity and use thereof” (CAREGEN CO., LTD., priority 2017, dated 2022)
Several values for one entry are separate records, joined by “and”; a condition that tells them apart may be missing. Equal entries are not always repeated.

Tests used:
Assay type in all cases: cell-based, mouse
[1] = test system: melanocytes (B16F10 cell line); assay: Melanogenesis assay (melanin content); settings: for Melanin content (%): B16F10, 72 hours, control group = 100; for melanogenesis: mouse melanin cell line B16F10 treated with the peptide, result in words
Protocol: After seeding melanocytes (B16F10 cell line) in 6-well plates at the density of 5×10^4 cells/well, the melanocytes were cultured in an incubator at a temperature of 37° C. for 24 hours, and the medium of each plate was removed and replaced with 2% serum-containing media, followed by treatment with the present peptide at different concentrations and then incubation of 72 hours.
Then, the culture medium was removed, and the cells were taken off and then transferred into 1.5-ml tubes, followed by centrifugation at 13,000 rpm for 3 minutes to remove the supernatant. Next, cell pellets were collected to observe melanin. 150 μl of 1 N NaOH was added to the cell pellets to lyse intracellular melanin at a temperature of 60° C. for 30 minutes.

[2] = test system: tyrosinase in melanoma cell line (B16F10) cells; assay: Tyrosinase activity assay in lysates of treated cells (L-DOPA); settings: for Tyrosinase activity (%): B16F10, 72 hours, control group = 100; for tyrosinase activity: mouse melanin cell line B16F10 treated with the peptide, result in words
Protocol: Melanoma cell line (B16F10) cells were cultured in 6-well culture plates for 24 hours, and treated with the peptide with different concentrations, followed by culture for 72 hours. The 6-well culture plates were loaded on ice and washed with cool PBS, and then 300 μl of 0.1 M sodium phosphate buffer (pH 6.8, lysis buffer) containing 1% Triton X-100 was added. The cells were collected in 1.5-ml tubes, and then cell membranes were disrupted by repeating five times rapid-freezing at […] and thawing. After centrifugation at 15,000 rpm for 10 minutes, the supernatant was collected in other 1.5-mL tubes, and the protein of the samples was quantified. The samples were diluted to have the same protein concentration and then dispensed in every three wells in 96-well culture plates, and then 20 μl of 10 mM L-DOPA was added, followed by incubation at 37° C. for 1 hour The blank and positive control were as shown in Table 5.
Then, the absorbance was measured at 475 nm, and the results are shown in FIGS. 2, 7, and 12, and Tables 6 to 8.

[3] = test system: MITF mRNA in B16F10 cell line; assay: RT-PCR of melanogenesis-related genes: MITF; settings: B16F10 treated with the peptide, 72 hours, result in words
Protocol: (§1) Melanocytes (B16F10 cell line) were seeded on 6-well culture plates at the density of 5×10^4 cells/well and incubated in an incubator for 24 hours. Then, the medium was replaced with […], and the cells were treated with the peptides of the present invention with different concentrations and cultured for 72 hours. Next, after RNA extraction of cells and quantification, cDNA was synthesized by using the cDNA synthesis kit (Intron, Korea). […] Then, degrees of mRNA expression of the growth factors under each sample treatment conditions were compared by running the resultants on a 5% agarose gel, and the results are shown in FIGS. 3, 8, and 13.

[4] = test system: tyrosinase mRNA in B16F10 cell line; assay: RT-PCR of melanogenesis-related genes: tyrosinase; settings: B16F10 treated with the peptide, 72 hours, result in words
Protocol: as §1

[5] = test system: TRP1 mRNA in B16F10 cell line; assay: RT-PCR of melanogenesis-related genes: TRP1; settings: B16F10 treated with the peptide, 72 hours, result in words
Protocol: as §1

[6] = test system: MITF and tyrosinase protein in B16F10 cell line; assay: Western blotting of melanogenesis-related proteins; settings: B16F10 treated with the peptide, 72-hour incubation, result in words
Protocol: (§2) Melanocytes (B16F10 cell line) were seeded on 6-well culture plates at the density of 5×10^4 cells/well and incubated in an incubator for 24 hours, and the cells were treated with the peptides of the present invention with different concentrations. After 72-hour incubation, the cells were lysed, and the cells were subjected to western blotting using antibodies (antacruz biotechnology, USA) each specific to MITF and tyrosinase, which are the factors involved in melanogenesis.

[7] = test system: CREB phosphorylation in B16F10 cell line; assay: Melanogenesis-related protein activity assay (CREB phosphorylation, western blotting); settings: B16F10 treated with the peptide, 48-hour incubation, result in words
Protocol: as §2, with “48-hour” for “72-hour”, “using specific” for “using”, “(Cell Signaling Technology,” for “(antacruz biotechnology,”, “USA)” for “USA) each specific”, “investigate the phosphorylation level of CREB,” for “MITF and tyrosinase,”, “is a signaling substance” for “are the factors”

Substance	Melanin content (%) ([1]; 10 μM peptide)	Melanin content (%) ([1]; 50 μM peptide)	melanogenesis [1]	Tyrosinase activity (%) ([2]; 10 μM peptide)	Tyrosinase activity (%) ([2]; 50 μM peptide)	tyrosinase activity [2]	mRNA expression of MITF [3]	mRNA expression of tyrosinase [4]	mRNA expression of TRP1 [5]	protein expression involved in the process of melanogenesis (MITF, tyrosinase) [6]	phosphorylation level of CREB [7]	Tyrosinase activity (%) ([2]; 200 nM a-MSH)
FCLGPCPYIWSL [SEQ ID NO: 1]	125	264	increased	157	201	increased	increased	increased	increased	increased	increased	–
KVTAMRCFLL [SEQ ID NO: 2]	109	155	increased	144	189	increased	increased	increased	increased	increased	increased	–
RVTAMRCFLL [SEQ ID NO: 3]	106	164	increased	114	173	increased	increased	increased	increased	increased	increased	–
α-melanocyte stimulating hormone [a-MSH, reference compound]	–	–	–	–	–	–	–	–	–	–	–	467% and 484%
